A short description of data set [1]: in vitro. Conditions: dog.
A short description of data set [2]: in vitro. The note with it: African green monkey.
The subject of data set [3] is K-562 (leukemia cell line). Description: NCI-60 single-dose assay. It is filed as cell-based. Conditions: Homo sapiens, K562, read-out: growth inhibition (GI%) and cytotoxicity (negative values). The text has this: (§1) We first evaluated the cytotoxic activity of tricyclic-pyrrole carboxamides 1–20 using the NCI-60 cell line panel, representing nine different human cancers: leukemia, melanoma, and cancers of the lung, colon, central nervous system (CNS), ovary, kidney, prostate, and breast (the one-dose graph for compounds 1–20 is reported in Supplementary Materials, Figures S43–S62). Compounds 1, 5, 10, 11, 17, and 20 satisfied pre-determined threshold inhibition criteria in a minimum number of cell lines; therefore, they were also tested in the full five-dose assay (Figures S63–S68 in the Supplementary Materials).

A short description of data set [4]: Cytotoxicity on uninfected Huh-7 cells (WST-8, crystal violet). Conditions: human, uninfected Huh-7 cells. For orientation: Tetrazolium dyes change colour on reduction, which living cells bring about.
Data set [5] relates to ZIKV, strain Brazil/2016/INMI1. Description: ZIKV viral yield reduction assay on Huh-7 cells. It is filed as cell-based, Zika virus. Conditions: for EC50: Zika virus. Here is the method:
We developed a protocol to screen the potential antiviral activity of compounds 1–20 against ZIKV (strain Brazil) on Huh-7 cells, against an H1N1 IAV strain (PR/8/1934) on MDCK cells, and against SARS-CoV-2 (strain Milano) on Vero-TMPRSS. Each compound was tested in duplicate at concentrations of 50 μM, 5 μM, and 0.5 μM. Treatment was applied immediately after infection, and at 24–48 h post-infection, supernatants were collected to assess viral yield, determined as PFU/mL for ZIKV and SARS-CoV-2 or as TCID50/mL for IAV. The test allowed us to evaluate both the antiviral action and the cytotoxicity of each compound, comparing them with reference compounds, such as sofosbuvir for ZIKV and EIDD-1931 for IAV and SARS-CoV-2 (Supplementary Materials, Figures S87–S89).
Viral yield reduction assays for ZIKV and SARS-CoV-2 were performed as previously described by Plicanti. Briefly, 1 × 10^4 Huh-7 cells/well and 1.2 × 10^4 VERO TMPRSS cells/well were infected with ZIKV (MOI 1) or SARS-CoV-2 (MOI 0.05) in a primary 96-well plate for 2 h at 37 °C, 5% CO2. […] Supernatants were collected after 48 h (Huh-7) or 24 h (VERO TMPRSS), diluted 3-fold, and added onto VERO E6 or VERO TMPRSS monolayers, respectively. After 2 h at 37 °C, the inoculum was replaced with 0.75% carboxymethyl cellulose (Merck®, Darmstadt, Germany) in DMEM 2% FBS. After 48–72 h, cells were then fixed with 4% buffered formalin solution (Merck®, Darmstadt, Germany) and stained with 1% crystal violet (Merck®, Darmstadt, Germany). Titres and percentage of inhibition were calculated as follows:
PFU/mL = number of plaques*3^n/vol infection, where n is the dilution where plaques were counted:% inhibition = 100 × (1 − Titre-compound/Titre-untreated control) where Titre-compound and Titre-untreated control are the titres (PFU/mL) obtained on cells treated with compound or DMSO, respectively.
SI was obtained by dividing CC50 by EC50 for each drug/virus/cell line. Compounds with SI values ≥ 10 were active in vitro.

Data set [6] relates to SARS-CoV-2 VR PV10734 (strain Milano). Description: microbe, parasite or virus in culture. It is filed as cell-based.
For data set [7], the system named is HCT-116 (colon cancer cell line). Nature of the data set: NCI-60 single-dose assay. It is filed as cell-based, human. The note with it: Homo sapiens, HCT-116, read-out: growth inhibition (GI%) and cytotoxicity (negative values).
Description: as §1

In data set [8] the test system is SK-MEL-5 (melanoma cell line). Nature of the data set: NCI-60 single-dose assay. The format is cell-based, human. The note with it: Homo sapiens, SK-MEL-5, read-out: growth inhibition (GI%) and cytotoxicity (negative values).
Description: as §1

The subject of another data set is M14 (melanoma cell line). Description: NCI-60 single-dose assay. The format is cell-based, human. The note with it: Homo sapiens, M14, read-out: growth inhibition (GI%) and cytotoxicity (negative values).
Description: as §1

For another data set, the system named is SR (leukemia cell line). Description: NCI-60 single-dose assay. The note with it: Homo sapiens, read-out: growth inhibition (GI%) and cytotoxicity (negative values). The format is cell-based, human.
Description: as §1

The subject of data set [9] is NCI-H460 (non-small cell lung cancer cell line). Description: NCI-60 single-dose assay. The format is cell-based, human. The note with it: Homo sapiens, NCI-H460, read-out: growth inhibition (GI%) and cytotoxicity (negative values).
Description: as §1

Data set [10] has as its system HL-60(TB) (leukemia cell line). Nature of the data set: NCI-60 single-dose assay. It is filed as cell-based, human. Conditions: Homo sapiens, HL-60, read-out: growth inhibition (GI%) and cytotoxicity (negative values).
Description: as §1

In data set [11] the test system is CCRF-CEM (leukemia cell line). Description: NCI-60 single-dose assay. The format is cell-based, human. Conditions: Homo sapiens, read-out: growth inhibition (GI%) and cytotoxicity (negative values).
Description: as §1

For data set [12], the system named is HT29 (colon cancer cell line). Description: NCI-60 single-dose assay. The format is cell-based, human. Conditions: Homo sapiens, HT-29, read-out: growth inhibition (GI%) and cytotoxicity (negative values).
Description: as §1

The test system of data set [13] is MOLT-4 (leukemia cell line). Description: NCI-60 single-dose assay. The format is cell-based, human. Conditions: Homo sapiens, MOLT-4, read-out: growth inhibition (GI%) and cytotoxicity (negative values).
Description: as §1

The subject of data set [14] is SW-620 (colon cancer cell line). Nature of the data set: NCI-60 single-dose assay. The format is cell-based, human. Conditions: Homo sapiens, SW-620, read-out: growth inhibition (GI%) and cytotoxicity (negative values).
Description: as §1

Data set [15] concerns RPMI-8226 (leukemia cell line). Nature of the data set: NCI-60 single-dose assay. The format is cell-based, human. Conditions: Homo sapiens, RPMI-8226, read-out: growth inhibition (GI%) and cytotoxicity (negative values).
Description: as §1

The test system of data set [16] is KM12 (colon cancer cell line). Nature of the data set: NCI-60 single-dose assay. Conditions: Homo sapiens, KM12, read-out: growth inhibition (GI%) and cytotoxicity (negative values). It is filed as cell-based, human.
Description: as §1

In data set [17] the test system is HCT-15 (colon cancer cell line). Nature of the data set: NCI-60 single-dose assay. It is filed as cell-based, human. Conditions: Homo sapiens, HCT-15, read-out: growth inhibition (GI%) and cytotoxicity (negative values).
Description: as §1

The test system of data set [18] is COLO 205 (colon cancer cell line). Description: NCI-60 single-dose assay. The format is cell-based, human. Conditions: Homo sapiens, COLO 205, read-out: growth inhibition (GI%) and cytotoxicity (negative values).
Description: as §1

The test system of data set [19] is HCC-2998 (colon cancer cell line). Nature of the data set: NCI-60 single-dose assay. Conditions: Homo sapiens, HCC 2998, read-out: growth inhibition (GI%) and cytotoxicity (negative values). It is filed as cell-based, human.
Description: as §1

For data set [20], the system named is IAV strain A/PR/8/34 (H1N1).
The test system of the next data set is MDCK cells. Nature of the data set: Cytotoxicity on uninfected MDCK cells (WST-8, crystal violet).
Data set [21] in a line: in vitro. Conditions: human.

Where two headings read alike, the source gives them in different places.

For the compound `CCOc1ccccc1N1CCN(CCNC(=O)c2[nH]c3c(c2Cl)CCCc2ccccc2-3)CC1` [Compound 7], the CC50 in the data set “in vitro [1]” came out at 5.6 µM. For the same compound, the CC50 at 24 h in the data set “in vitro [2]” was found to be 38.5 µM. In addition, the inhibition (commonly the drop in the measured response relative to a control, in per cent) at 10 µM in data set [3] turned out to be 82.6%; in data set [7], 76.1%; in data set [8] it was 77.7%; in the data set on M14 (melanoma cell line), 88.6%; in the data set with SR (leukemia cell line), 70%; in [9] it was 60.8%. The inhibition at 10 µM in data set [10] was under 60%; in data set [11], under 60%; in data set [12], 72.7%; in data set [13], 66.5%; in [14] it was under 60%; in [15], 63.4%. The inhibition at 10 µM in data set [16] is under 60%; in data set [17], 82.1%; in [18] it was 88.8%; in data set [19], under 60%. Besides, the CC50 at 48 h in [4] was found to be 50.7 µM. Moreover, the EC50 turned out to be 3.82 µM in data set [5] (Huh-7, read-out: ZIKV/Huh‐7 EC50) and 37.3 µM in data set [6] (Severe acute respiratory syndrome coronavirus 2, preliminary screening (50, 5, 0.5 μM), Vero TMPRSS, read-out: SARS‐CoV‐2/Vero TMPRSS EC50).
With `O=c1nc(NO)ccn1[C@@H]1O[C@H](CO)[C@@H](O)[C@H]1O` [EIDD-1931, reference compound], the EC50 was determined as 0.39 µM in [20] (IAV, MDCK cells, 48 h, full dose-response); 2.07 µM in data set [20] (read-out: IAV/MDCK EC50, preliminary screening (50, 5, 0.5 μM), MDCK); 0.05 µM in data set [6] (SARS-CoV-2, VERO TMPRSS cells, 24 h, full dose-response, read-out: EC50); 0.11 µM in [6] (preliminary screening (50, 5, 0.5 μM), Vero TMPRSS, read-out: SARS‐CoV‐2/Vero TMPRSS EC50). For the same compound, the “IAV/MDCK SI” value in data set [20] (preliminary screening) is given as under 24.15. The CC50 in the data set on MDCK cells (MDCK cells, 48 h, full dose-response) was 138 µM; in the data set with MDCK cells (read-out: IAV/MDCK CC50, preliminary screening (50, 5, 0.5 μM), MDCK), under 50 µM; in the data set on Vero TMPRSS cells (VERO TMPRSS cells, 24 h, full dose-response), 22.2 µM; in the data set on Vero TMPRSS cells (read-out: SARS‐CoV‐2/Vero TMPRSS CC50, preliminary screening (50, 5, 0.5 μM), Vero TMPRSS), 13.4 µM.
Compound `CC(C)OC(=O)[C@H](C)N[P@](=O)(OC[C@H]1O[C@@H](n2ccc(=O)[nH]c2=O)[C@](C)(F)[C@@H]1O)Oc1ccccc1` [sofosbuvir, reference compound] registered a CC50 at 48 h in data set [4] of 300 µM. The “selectivity index (SI)” value in [5] (ZIKV, Huh-7 cells, CC50/EC50) amounted to 178.32. The EC50 in data set [5] (ZIKV, Huh-7 cells, 48 h, full dose-response, read-out: EC50) turned out to be 1.47 µM; in data set [5] (preliminary screening (50, 5, 0.5 μM), Huh-7, read-out: ZIKV/Huh‐7 EC50) it was 2.07 µM. This compound also came in with a CC50 in “in vitro [21]” of 262 µM.
